# According to US9181307B2, “Influenza A 2009 pandemic H1N1 polypeptide fragments comprising endonuclease activity and their use” (priority 2010, dated 2015):
# Tested on: Influenza A 2009 pandemic H1N1 PA subunit polypeptide fragment or variant thereof
# Test: Inhibition of endonucleolytic activity of PA subunit polypeptide fragment
# Format: biochemical, Influenza A 2009 pandemic H1N1 virus
row,Structure (SMILES),"ability to modulate, i.e. to inhibit, the endonucleolytic activity"
1,"O=C(O[C@@H]1Cc2c(O)cc(O)cc2O[C@@H]1c1cc(O)c(O)c(O)c1)c1cc(O)c(O)c(O)c1 [EGCG, [(2R,3R)-5,7-dihydroxy-2-(3,4,5-trihydroxyphenyl)chroman-3-yl]3,4,5-trihydroxybenzoate]",inhibit
2,"O=C(O)/C(O)=C/C(=O)C1(Cc2ccc(Cl)cc2)CCN(CC2CCCCC2)CC1 [EMBL-R05-2, 4-[4-[(4-chlorophenyl)methyl]-1-(cyclohexylmethyl)-4-piperidinyl]-2-hydroxy-4-oxo-2-butenoic acid]",inhibit
3,"O=C(O)/C(O)=C/C(=O)C1(Cc2ccc(Cl)cc2)CCCN(Cc2ccccc2)C1 (stereo not drawn) [EMBL-R05-3, 4-[3-[(4-chlorophenyl)methyl]-1-(phenylmethyl)-3-piperidinyl]-2-hydroxy-4-oxo-2-butenoic acid]",inhibit
